What was measured:
Assay type in all cases: physicochemical
[1] = Solution stability, alpha naphthol (0.60 RRT) in DMA:Saline (80:20 v/v); set-up: 0.60 RRT (Alpha Naphthol): unit not given here; settings: 400 mg/mL in DMA:Saline (80:20 v/v)
Procedure: Stability data is also provided in Table 4, which compares the levels of alpha naphthol (0.60 RRT) present in solutions of 400 mg/mL NUC-3373, prepared by Example 3 or 4, above, in DMA:Saline (80:20 v/v) at different temperatures measured over set periods of time. The tested solutions are suitable for infusion and injection and the temperatures and times measured are representative of the environments that solutions suitable for infusion and injection would typically be stored in.
In Table 4 the two values provided for each temperature at each time period, separated by “/”, represent different preparations (samples) of that synthesis.

[2] = 6 month dry powder stability, HPLC assay
From the text: (§1) NUC-3373 prepared according to Example 3 and Comparative Example 4 was packed into a transparent LDPE bag which was then filled with nitrogen and tied with a strip seal. This bag was then placed into another transparent LDPE bag which was also filled with nitrogen. A silica gel packet was placed between the two bags before the outermost bag was tied with a strip seal. These bags were then placed in a triple laminated sun light barrier bag which was sealed with a heat sealer. The bags were kept in a HDPE container.
(§2) NUC-3373 was initially assayed by HPLC after manufacture (0 months) then after 1 and 2 and/or 3 and 6 months of storage at 2-8° C., 25° C. or 40° C.

[3] = 6 month dry powder stability, Alpha Naphthol content by HPLC
From the text: as §1, §2
The Alpha Naphthol content of the same batches was also determined by HPLC. The levels of the alpha naphthol impurity is a key indicator of stability of the tested material.

[4] = After 1 month at 2-8° C., first preparation (before "/")
[5] = After 1 month at 2-8° C., second preparation (after "/")
[6] = After 1 month at 25 ± 5° C., first preparation (before "/")
[7] = After 1 month at 25 ± 5° C., second preparation (after "/")
[8] = After 3 months at 2-8° C., first preparation (before "/")
[9] = After 3 months at 2-8° C., second preparation (after "/")
[10] = After 3 months at 25 ± 5° C., first preparation (before "/")
[11] = After 3 months at 25 ± 5° C., second preparation (after "/")
[12] = After 6 months at 2-8° C., first preparation (before "/")
[13] = After 6 months at 2-8° C., second preparation (after "/")
[14] = After 6 months at 25 ± 5° C., first preparation (before "/")
[15] = After 6 months at 25 ± 5° C., second preparation (after "/")
[16] = After 9 months at 2-8° C., first preparation (before "/")
[17] = After 9 months at 2-8° C., second preparation (after "/")
[18] = After 9 months at 25 ± 5° C., first preparation (before "/")
[19] = After 9 months at 25 ± 5° C., second preparation (after "/")
[20] = After 15 days at 2-8° C., first preparation (before "/")
[21] = After 15 days at 2-8° C., second preparation (after "/")
[22] = After 15 days at 25 ± 5° C., first preparation (before "/")
[23] = After 15 days at 25 ± 5° C., second preparation (after "/")

SMILES: C[C@H](NP(=O)(OC[C@H]1O[C@@H](n2cc(F)c(=O)[nH]c2=O)CC1O)Oc1cccc2ccccc12)C(=O)OCc1ccccc1 (stereo partly drawn) [Example 3, Batch 1, 5-fluoro-2′-deoxyuridine-5′-O-[1-naphthyl (benzoxy-L-alaninyl)] phosphate]
- 0.60 RRT (Alpha Naphthol) [1, 4]: 0.07/0.07
- 0.60 RRT (Alpha Naphthol) [1, 5]: 0.07/0.07
- 0.60 RRT (Alpha Naphthol) [1, 6]: 0.08/0.08
- 0.60 RRT (Alpha Naphthol) [1, 7]: 0.08/0.08
- 0.60 RRT (Alpha Naphthol) [1, 8]: 0.07/0.07
- 0.60 RRT (Alpha Naphthol) [1, 9]: 0.07/0.07
- 0.60 RRT (Alpha Naphthol) [1, 10]: 0.10
- 0.60 RRT (Alpha Naphthol) [1, 11]: 0.11
- 0.60 RRT (Alpha Naphthol) [1, 12]: 0.07
- 0.60 RRT (Alpha Naphthol) [1, 13]: 0.08
- 0.60 RRT (Alpha Naphthol) [1, 14]: 0.20
- 0.60 RRT (Alpha Naphthol) [1, 15]: 0.22
- 0.60 RRT (Alpha Naphthol) [1, 16]: 0.07
- 0.60 RRT (Alpha Naphthol) [1, 17]: 0.08
- 0.60 RRT (Alpha Naphthol) [1, 18]: 0.42
- 0.60 RRT (Alpha Naphthol) [1, 19]: 0.38
- 0.60 RRT (Alpha Naphthol) [1, 20]: 0.07/0.07
- 0.60 RRT (Alpha Naphthol) [1, 21]: 0.07/0.07
- 0.60 RRT (Alpha Naphthol) [1, 22]: 0.07
- 0.60 RRT (Alpha Naphthol) [1, 23]: 0.08
- 0.60 RRT (Alpha Naphthol) ([1]; Initial): 0.07
- Decrease after 6 months, HPLC assay ([2]; 2-8 ° C.): None
- HPLC assay (% w/w on anhydrous and solvent free basis) ([2]; 2-8 ° C., 0 months): 100.4 % w/w
- HPLC assay (% w/w on anhydrous and solvent free basis) ([2]; 2-8 ° C., 3 months): 101.5 % w/w
- HPLC assay (% w/w on anhydrous and solvent free basis) ([2]; 2-8 ° C., 6 months): 100.4 % w/w
- Decrease after 6 months, HPLC assay ([2]; 25 ° C.): None
- HPLC assay (% w/w on anhydrous and solvent free basis) ([2]; 25 ° C., 0 months): 100.4 % w/w
- HPLC assay (% w/w on anhydrous and solvent free basis) ([2]; 25 ° C., 3 months): 101.1 % w/w
- HPLC assay (% w/w on anhydrous and solvent free basis) ([2]; 25 ° C., 6 months): 100.8 % w/w
- Decrease after 6 months, HPLC assay ([2]; 40 ° C.): None
- HPLC assay (% w/w on anhydrous and solvent free basis) ([2]; 40 ° C., 0 months): 100.4 % w/w
- HPLC assay (% w/w on anhydrous and solvent free basis) ([2]; 40 ° C., 1 month): 100.0 % w/w
- HPLC assay (% w/w on anhydrous and solvent free basis) ([2]; 40 ° C., 2 months): 101.5 % w/w
- HPLC assay (% w/w on anhydrous and solvent free basis) ([2]; 40 ° C., 3 months): 101.6 % w/w
- HPLC assay (% w/w on anhydrous and solvent free basis) ([2]; 40 ° C., 6 months): 100.7 % w/w
- Increase after 6 months, Alpha Naphthol by HPLC ([3]; 2-8 ° C.): None
- Alpha Naphthol by HPLC (% w/w) ([3]; 2-8 ° C., 0 months): 0.15 % w/w
- Alpha Naphthol by HPLC (% w/w) ([3]; 2-8 ° C., 3 months): 0.16 % w/w
- Alpha Naphthol by HPLC (% w/w) ([3]; 2-8 ° C., 6 months): 0.15 % w/w
- Increase after 6 months, Alpha Naphthol by HPLC ([3]; 25 ° C.): None
- Alpha Naphthol by HPLC (% w/w) ([3]; 25 ° C., 0 months): 0.15 % w/w
- Alpha Naphthol by HPLC (% w/w) ([3]; 25 ° C., 3 months): 0.15 % w/w
- Alpha Naphthol by HPLC (% w/w) ([3]; 25 ° C., 6 months): 0.14 % w/w
- Increase after 6 months, Alpha Naphthol by HPLC ([3]; 40 ° C.): None
- Alpha Naphthol by HPLC (% w/w) ([3]; 40 ° C., 0 months): 0.15 % w/w
- Alpha Naphthol by HPLC (% w/w) ([3]; 40 ° C., 1 month): 0.15 % w/w
- Alpha Naphthol by HPLC (% w/w) ([3]; 40 ° C., 2 months): 0.15 % w/w
- Alpha Naphthol by HPLC (% w/w) ([3]; 40 ° C., 3 months): 0.14 % w/w
- Alpha Naphthol by HPLC (% w/w) ([3]; 40 ° C., 6 months): 0.13 % w/w

SMILES: C[C@H](NP(=O)(OC[C@H]1O[C@@H](n2cc(F)c(=O)[nH]c2=O)CC1O)Oc1cccc2ccccc12)C(=O)OCc1ccccc1 (stereo partly drawn) [Example 3, Batch 2, 5-fluoro-2′-deoxyuridine-5′-O-[1-naphthyl (benzoxy-L-alaninyl)] phosphate]
- 0.60 RRT (Alpha Naphthol) [1, 4]: 0.02/0.02
- 0.60 RRT (Alpha Naphthol) [1, 5]: 0.02/0.02
- 0.60 RRT (Alpha Naphthol) [1, 6]: 0.04/0.04
- 0.60 RRT (Alpha Naphthol) [1, 7]: 0.04/0.04
- 0.60 RRT (Alpha Naphthol) [1, 8]: 0.02/0.02
- 0.60 RRT (Alpha Naphthol) [1, 9]: 0.02/0.02
- 0.60 RRT (Alpha Naphthol) [1, 10]: 0.11/0.11
- 0.60 RRT (Alpha Naphthol) [1, 11]: 0.11/0.11
- 0.60 RRT (Alpha Naphthol) [1, 12]: 0.03
- 0.60 RRT (Alpha Naphthol) [1, 13]: 0.02
- 0.60 RRT (Alpha Naphthol) [1, 14]: 0.34
- 0.60 RRT (Alpha Naphthol) [1, 15]: 0.35
- 0.60 RRT (Alpha Naphthol) [1, 16]: 0.03/0.03
- 0.60 RRT (Alpha Naphthol) [1, 17]: 0.03/0.03
- 0.60 RRT (Alpha Naphthol) [1, 18]: 0.89/0.89
- 0.60 RRT (Alpha Naphthol) [1, 19]: 0.89/0.89
- 0.60 RRT (Alpha Naphthol) ([1]; After 12 months at 2-8° C., first preparation (before "/")): 0.04/0.04
- 0.60 RRT (Alpha Naphthol) ([1]; After 12 months at 2-8° C., second preparation (after "/")): 0.04/0.04
- 0.60 RRT (Alpha Naphthol) ([1]; After 12 months at 25 ± 5° C., first preparation (before "/")): 1.60/1.60
- 0.60 RRT (Alpha Naphthol) ([1]; After 12 months at 25 ± 5° C., second preparation (after "/")): 1.60/1.60
- 0.60 RRT (Alpha Naphthol) [1, 20]: 0.01/0.01
- 0.60 RRT (Alpha Naphthol) [1, 21]: 0.01/0.01
- 0.60 RRT (Alpha Naphthol) [1, 22]: 0.03
- 0.60 RRT (Alpha Naphthol) [1, 23]: 0.02
- 0.60 RRT (Alpha Naphthol) ([1]; Initial): 0.01
- Decrease after 6 months, HPLC assay ([2]; 2-8 ° C.): None
- HPLC assay (% w/w on anhydrous and solvent free basis) ([2]; 2-8 ° C., 0 months): 100.2 % w/w
- HPLC assay (% w/w on anhydrous and solvent free basis) ([2]; 2-8 ° C., 3 months): 101.3 % w/w
- HPLC assay (% w/w on anhydrous and solvent free basis) ([2]; 2-8 ° C., 6 months): 100.4 % w/w
- Decrease after 6 months, HPLC assay ([2]; 25 ° C.): None
- HPLC assay (% w/w on anhydrous and solvent free basis) ([2]; 25 ° C., 0 months): 100.2 % w/w
- HPLC assay (% w/w on anhydrous and solvent free basis) ([2]; 25 ° C., 3 months): 101.1 % w/w
- HPLC assay (% w/w on anhydrous and solvent free basis) ([2]; 25 ° C., 6 months): 100.7 % w/w
- Decrease after 6 months, HPLC assay ([2]; 40 ° C.): None
- HPLC assay (% w/w on anhydrous and solvent free basis) ([2]; 40 ° C., 0 months): 100.2 % w/w
- HPLC assay (% w/w on anhydrous and solvent free basis) ([2]; 40 ° C., 1 month): 99.7 % w/w
- HPLC assay (% w/w on anhydrous and solvent free basis) ([2]; 40 ° C., 2 months): 100.9 % w/w
- HPLC assay (% w/w on anhydrous and solvent free basis) ([2]; 40 ° C., 3 months): 101.5 % w/w
- HPLC assay (% w/w on anhydrous and solvent free basis) ([2]; 40 ° C., 6 months): 100.4 % w/w
- Increase after 6 months, Alpha Naphthol by HPLC ([3]; 2-8 ° C.): None
- Alpha Naphthol by HPLC (% w/w) ([3]; 2-8 ° C., 0 months): 0.44 % w/w
- Alpha Naphthol by HPLC (% w/w) ([3]; 2-8 ° C., 3 months): 0.46 % w/w
- Alpha Naphthol by HPLC (% w/w) ([3]; 2-8 ° C., 6 months): 0.43 % w/w
- Increase after 6 months, Alpha Naphthol by HPLC ([3]; 25 ° C.): None
- Alpha Naphthol by HPLC (% w/w) ([3]; 25 ° C., 0 months): 0.44 % w/w
- Alpha Naphthol by HPLC (% w/w) ([3]; 25 ° C., 3 months): 0.45 % w/w
- Alpha Naphthol by HPLC (% w/w) ([3]; 25 ° C., 6 months): 0.42 % w/w
- Increase after 6 months, Alpha Naphthol by HPLC ([3]; 40 ° C.): None
- Alpha Naphthol by HPLC (% w/w) ([3]; 40 ° C., 0 months): 0.44 % w/w
- Alpha Naphthol by HPLC (% w/w) ([3]; 40 ° C., 1 month): 0.44 % w/w
- Alpha Naphthol by HPLC (% w/w) ([3]; 40 ° C., 2 months): 0.42 % w/w
- Alpha Naphthol by HPLC (% w/w) ([3]; 40 ° C., 3 months): 0.42 % w/w
- Alpha Naphthol by HPLC (% w/w) ([3]; 40 ° C., 6 months): 0.38 % w/w

Source: patent US20250296948A1, “SYNTHESIS OF NUCLEOSIDE DERIVATIVES” (Nucana plc, priority 2022, published 2025)
